Experimental data: patent US20060167005A1, “New therapeutic uses of (4-(2-fluorophenyl)-6-methyl-2-(1-piperazinyl) thieno [2,3-d] pyrimidine” (priority 2002, published 2006)

Assays:
[1] = tested on: adult female obese Zucker rats; test: Obesity and weight gain in obese Zucker rats over 32 days; assay type: in vivo, rat; details: 30 mg/kg orally once daily, vs vehicle group
Protocol: MCI-225 is evaluated in adult female obese Zucker rats over a period of 32 days. A control group of 6 animals is dosed daily with vehicle alone whilst a second group of 6 weight-matched animals receives MCI-225 at 30 mg/kg given orally once daily. Food is available ad libitum, except on days 0, 7, 14, 21, 28 and 32 when food was removed from the animals at 7.30 am and animals weighed within 2 hours following removal of food. Food is supplied after weights of animals are measured.

[2] = tested on: alcohol-preferring rats; test: Alcohol intake in alcohol-preferring rats; assay type: in vivo, rat; details: 30 mg/kg/day orally over 4 consecutive days, vs vehicle
Protocol: The effects of MCI-225 are determined in alcohol-preferring rats. Because of their pattern of drinking, these animals seem to represent a valid model of the human condition of alcoholism (McBride et al, 1990, Alcohol 7:199-205, Lankford et al, 1991, Pharmacol. Biochem. Behav., 8:293-299). After maximally preferred alcohol concentrations had stabilised for 4 days, MCI-225 at 30 mg/kg/day orally or vehicle was administered over 4 consecutive days.

[3] = tested on: rats; test: Nicotine withdrawal model using the acoustic startle reflex in rats; assay type: in vivo, rat; details: for example 30 mg/kg/day following nicotine withdrawal (nicotine 6 mg/kg/day s.c. for 12 days)
Protocol: The effects of MCI-225 are investigated in a model of nicotine withdrawal using the acoustic startle reflex in rats (see e.g. Helton et al, 1997, Neuropharmacology 36 (11-12):1511-1516). Nicotine (6 mg/kg/day) is administered for 12 days subcutaneously by osmotic minipumps. After 12 days, the pumps are removed and the animals allowed to go through spontaneous withdrawal. Cessation of chronic nicotine exposure leads to increased startle responses (sensorimotor reactivity) for 4 days following withdrawal.

[4] = tested on: rats; test: Transient middle cerebral artery occlusion model in rats; assay type: in vivo, rat; details: 30 mg/kg, for example 2 hours after onset of occlusion, vs vehicle-treated animals
Description: The effects of MCI-225 are studied in a transient middle cerebral artery occlusion model in rats (see Chen et al, 1999, J. Neurol. Sci. 171(1):24-30). In particular, effects on an array of functional measures are studied, including rotarod, adhesive-backed somatosensory and neurological scores.

[5] = tested on: ferret; test: Cisplatin-induced emesis in the ferret; assay type: in vivo; details: 30 mg/kg orally 1 hour prior to cisplatin, vs control animals
Description: The effects of MCI-225 are studied against cisplatin-induced emesis in the ferret (see Florczyk et al, 1982, Cancer Treat. Rep. 66(1):187-189). […] Efficacy against cisplatin predicts efficacy against radiation-induced nausea/vomiting.

Q: What does the source list for `Cc1cc2c(-c3ccccc3F)nc(N3CCNCC3)nc2s1.Cl.O` [MCI-225]?
A: body weights [1]: lower body weights; intake of alcohol in terms of absolute g/kg and/or proportion of alcohol to total fluid intake [2]: reduction in intake of alcohol; enhanced auditory startle response following withdrawal of nicotine [3]: attenuation of the enhanced auditory startle response; functional scores (rotarod, adhesive-backed somatosensory, neurological) following ischaemia [4]: improvement in one or more of the functional scores; emetic response [5]: reduction in the emetic response
